Experimental data published in PubChem BioAssay AID2060896 (Molecular Pharmacology Branch, DTP, NCI, 2025).

Test system: 941728-121-R-J1-PDC complex spheroid viability
Assay: Anticancer human tumor 941728-121-R-J1-PDC patient-derived lung adenocarcinoma cell line growth inhibition [RAS]
Conditions: for IC50: curve of first compound; for viability, T/C: stronger effect = lower value
Outline: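 Agents were tested in combination matrices in half-log decrements from a top concentration at or near clinical Cmax (10 microM if undetermined). Targets were multi-cell spheroids of tumour lines plus HUVEC and MSC stromal cells.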

[1] = second compound 0.0316 µM, first compound 0.0316 µM
[2] = second compound 0.0316 µM, first compound 0.1 µM
[3] = second compound 0.0316 µM, first compound 0.316 µM
[4] = second compound 0.0316 µM, first compound 1 µM
[5] = second compound 0.0316 µM, first compound 3.16 µM
[6] = second compound 0.0316 µM, first compound 10 µM
[7] = second compound 0.1 µM, first compound 0.0316 µM
[8] = second compound 0.1 µM, first compound 0.1 µM
[9] = second compound 0.1 µM, first compound 0.316 µM
[10] = second compound 0.1 µM, first compound 1 µM
[11] = second compound 0.1 µM, first compound 3.16 µM
[12] = second compound 0.1 µM, first compound 10 µM
[13] = second compound 0.316 µM, first compound 0.0316 µM
[14] = second compound 0.316 µM, first compound 0.1 µM
[15] = second compound 0.316 µM, first compound 0.316 µM
[16] = second compound 0.316 µM, first compound 1 µM
[17] = second compound 0.316 µM, first compound 3.16 µM
[18] = second compound 0.316 µM, first compound 10 µM
[19] = second compound 1 µM, first compound 0.0316 µM
[20] = second compound 1 µM, first compound 0.1 µM
[21] = second compound 1 µM, first compound 0.316 µM
[22] = second compound 1 µM, first compound 1 µM
[23] = second compound 1 µM, first compound 3.16 µM
[24] = second compound 1 µM, first compound 10 µM
[25] = second compound 3.16 µM, first compound 0.0316 µM
[26] = second compound 3.16 µM, first compound 0.1 µM
[27] = second compound 3.16 µM, first compound 0.316 µM
[28] = second compound 3.16 µM, first compound 1 µM
[29] = second compound 3.16 µM, first compound 3.16 µM
[30] = second compound 3.16 µM, first compound 10 µM
[31] = second compound 10 µM, first compound 0.0316 µM
[32] = second compound 10 µM, first compound 0.1 µM
[33] = second compound 10 µM, first compound 0.316 µM
[34] = second compound 10 µM, first compound 1 µM
[35] = second compound 10 µM, first compound 3.16 µM
[36] = second compound 10 µM, first compound 10 µM
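Further: spheroids exposed to compounds for 7 days before readout.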
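Wherever viability, T/C is given: 100% = DMSO vehicle control viability.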

## CC(=O)OC12COC1CC(O)C1(C)C(=O)C(O)C3=C(C)C(OC(=O)C(O)C(NC(=O)OC(C)(C)C)c4ccccc4)CC(O)(C(OC(=O)c4ccccc4)C21)C3(C)C (stereo not drawn) + C#Cc1c(F)ccc2cc(O)cc(-c3ncc4c(N5CC6CCC(C5)N6)nc(OCC56CCCN5CC(F)C6)nc4c3F)c12
Second compound 0.0316 µM
  IC50: < 31.6 nM
Second compound 0.1 µM
  IC50: < 31.6 nM
Second compound 0.316 µM
  IC50: < 31.6 nM
Second compound 1 µM
  IC50: < 31.6 nM
Second compound 3.16 µM
  IC50: < 31.6 nM
Second compound 10 µM
  IC50: < 31.6 nM
[1]
  viability, T/C: 39.9%
[2]
  viability, T/C: 39.7%
[3]
  viability, T/C: 39.7%
[4]
  viability, T/C: 37.6%
[5]
  viability, T/C: 42.7%
[6]
  viability, T/C: 41.7%
[7]
  viability, T/C: 41.8%
[8]
  viability, T/C: 36.1%
[9]
  viability, T/C: 30.3%
[10]
  viability, T/C: 41.6%
[11]
  viability, T/C: 38.2%
[12]
  viability, T/C: 39.1%
[13]
  viability, T/C: 30.5%
[14]
  viability, T/C: 36.8%
[15]
  viability, T/C: 32.6%
[16]
  viability, T/C: 31.2%
[17]
  viability, T/C: 33.3%
[18]
  viability, T/C: 36.7%
[19]
  viability, T/C: 30.6%
[20]
  viability, T/C: 32.3%
[21]
  viability, T/C: 27.8%
[22]
  viability, T/C: 24.6%
[23]
  viability, T/C: 28.1%
[24]
  viability, T/C: 31%
[25]
  viability, T/C: 22.9%
[26]
  viability, T/C: 26.7%
[27]
  viability, T/C: 23.2%
[28]
  viability, T/C: 21.7%
[29]
  viability, T/C: 22.8%
[30]
  viability, T/C: 25.7%
[31]
  viability, T/C: 16.2%
[32]
  viability, T/C: 14.9%
[33]
  viability, T/C: 14.1%
[34]
  viability, T/C: 14%
[35]
  viability, T/C: 15.3%
[36]
  viability, T/C: 16%

## Cc1nc(N2CCC3(CC2)COC(C)C3N)c(CO)nc1Sc1ccnc(N)c1Cl (stereo not drawn) + C#Cc1c(F)ccc2cc(O)cc(-c3ncc4c(N5CC6CCC(C5)N6)nc(OCC56CCCN5CC(F)C6)nc4c3F)c12
Second compound 0.0316 µM
  IC50: < 31.6 nM
Second compound 0.1 µM
  IC50: < 31.6 nM
Second compound 0.316 µM
  IC50: < 31.6 nM
Second compound 1 µM
  IC50: < 31.6 nM
Second compound 3.16 µM
  IC50: < 31.6 nM
Second compound 10 µM
  IC50: < 31.6 nM
[1]
  viability, T/C: 50.4%
[2]
  viability, T/C: 42.5%
[3]
  viability, T/C: 37.8%
[4]
  viability, T/C: 33.5%
[5]
  viability, T/C: 34%
[6]
  viability, T/C: 36.8%
[7]
  viability, T/C: 42.8%
[8]
  viability, T/C: 37.8%
[9]
  viability, T/C: 33.1%
[10]
  viability, T/C: 31.7%
[11]
  viability, T/C: 33%
[12]
  viability, T/C: 35.4%
[13]
  viability, T/C: 37.8%
[14]
  viability, T/C: 34.2%
[15]
  viability, T/C: 35.7%
[16]
  viability, T/C: 29.1%
[17]
  viability, T/C: 32%
[18]
  viability, T/C: 31%
[19]
  viability, T/C: 30.2%
[20]
  viability, T/C: 32.4%
[21]
  viability, T/C: 29.9%
[22]
  viability, T/C: 27.9%
[23]
  viability, T/C: 30.5%
[24]
  viability, T/C: 32.3%
[25]
  viability, T/C: 28.8%
[26]
  viability, T/C: 29.1%
[27]
  viability, T/C: 25.7%
[28]
  viability, T/C: 23.1%
[29]
  viability, T/C: 25.1%
[30]
  viability, T/C: 26.2%
[31]
  viability, T/C: 20.1%
[32]
  viability, T/C: 21.4%
[33]
  viability, T/C: 19.9%
[34]
  viability, T/C: 19.6%
[35]
  viability, T/C: 21.3%
[36]
  viability, T/C: 20.8%

## NC1c2ccccc2OC12CCN(c1cnc3c(N4CCCc5ncccc54)n[nH]c3n1)CC2 (stereo not drawn) + C#Cc1c(F)ccc2cc(O)cc(-c3ncc4c(N5CC6CCC(C5)N6)nc(OCC56CCCN5CC(F)C6)nc4c3F)c12
Second compound 0.0316 µM
  IC50: < 31.6 nM
Second compound 0.1 µM
  IC50: < 31.6 nM
Second compound 0.316 µM
  IC50: < 31.6 nM
Second compound 1 µM
  IC50: < 31.6 nM
Second compound 3.16 µM
  IC50: < 31.6 nM
Second compound 10 µM
  IC50: < 31.6 nM
[1]
  viability, T/C: 37.8%
[2]
  viability, T/C: 34.7%
[3]
  viability, T/C: 30.6%
[4]
  viability, T/C: 35.9%
[5]
  viability, T/C: 35.5%
[6]
  viability, T/C: 43%
[7]
  viability, T/C: 34.8%
[8]
  viability, T/C: 33%
[9]
  viability, T/C: 31.6%
[10]
  viability, T/C: 35.6%
[11]
  viability, T/C: 34.2%
[12]
  viability, T/C: 36.5%
[13]
  viability, T/C: 30.3%
[14]
  viability, T/C: 30.8%
[15]
  viability, T/C: 32.8%
[16]
  viability, T/C: 29.8%
[17]
  viability, T/C: 32%
[18]
  viability, T/C: 37%
[19]
  viability, T/C: 28.5%
[20]
  viability, T/C: 27.6%
[21]
  viability, T/C: 31.4%
[22]
  viability, T/C: 29.4%
[23]
  viability, T/C: 28.8%
[24]
  viability, T/C: 29.7%
[25]
  viability, T/C: 24.1%
[26]
  viability, T/C: 24%
[27]
  viability, T/C: 24.4%
[28]
  viability, T/C: 24.6%
[29]
  viability, T/C: 23.4%
[30]
  viability, T/C: 24.6%
[31]
  viability, T/C: 20.9%
[32]
  viability, T/C: 18.3%
[33]
  viability, T/C: 19.3%
[34]
  viability, T/C: 18.8%
[35]
  viability, T/C: 17.8%
[36]
  viability, T/C: 18.4%

## Nc1ccn(C2OC(CO)C(O)C2(F)F)c(=O)n1 (stereo not drawn) + C#Cc1c(F)ccc2cc(O)cc(-c3ncc4c(N5CC6CCC(C5)N6)nc(OCC56CCCN5CC(F)C6)nc4c3F)c12
Second compound 0.0316 µM
  IC50: 22.3 nM
Second compound 0.1 µM
  IC50: 15.5 nM
Second compound 0.316 µM
  IC50: 5.51 nM
Second compound 1 µM
  IC50: < 3.16 nM
Second compound 3.16 µM
  IC50: < 3.16 nM
Second compound 10 µM
  IC50: < 3.16 nM
Second compound 0.0316 µM, first compound 0.00316 µM
  viability, T/C: 71.5%
Second compound 0.0316 µM, first compound 0.01 µM
  viability, T/C: 54%
[1]
  viability, T/C: 49.6%
[2]
  viability, T/C: 43.4%
[3]
  viability, T/C: 46.3%
[4]
  viability, T/C: 42.6%
Second compound 0.1 µM, first compound 0.00316 µM
  viability, T/C: 72.8%
Second compound 0.1 µM, first compound 0.01 µM
  viability, T/C: 55.1%
[7]
  viability, T/C: 41.7%
[8]
  viability, T/C: 38.3%
[9]
  viability, T/C: 34.5%
[10]
  viability, T/C: 38.2%
Second compound 0.316 µM, first compound 0.00316 µM
  viability, T/C: 51%
Second compound 0.316 µM, first compound 0.01 µM
  viability, T/C: 52.6%
[13]
  viability, T/C: 38.3%
[14]
  viability, T/C: 35.5%
[15]
  viability, T/C: 37.6%
[16]
  viability, T/C: 33.1%
Second compound 1 µM, first compound 0.00316 µM
  viability, T/C: 33.9%
Second compound 1 µM, first compound 0.01 µM
  viability, T/C: 31.9%
[19]
  viability, T/C: 31.6%
[20]
  viability, T/C: 33.2%
[21]
  viability, T/C: 36.8%
[22]
  viability, T/C: 30.3%
Second compound 3.16 µM, first compound 0.00316 µM
  viability, T/C: 30.4%
Second compound 3.16 µM, first compound 0.01 µM
  viability, T/C: 28.7%
[25]
  viability, T/C: 28.5%
[26]
  viability, T/C: 28.3%
[27]
  viability, T/C: 26.1%
[28]
  viability, T/C: 27.7%
Second compound 10 µM, first compound 0.00316 µM
  viability, T/C: 23.6%
Second compound 10 µM, first compound 0.01 µM
  viability, T/C: 21.3%
[31]
  viability, T/C: 20.8%
[32]
  viability, T/C: 18%
[33]
  viability, T/C: 20.2%
[34]
  viability, T/C: 20.1%
